Source: US20230270692A1, “COMPOUNDS FOR CHRONIC DISORDERS” (Pillai Universal LLC, priority 2020, published 2023)

Tests used:
Vero cells = conditions: any of the concentrations tested
[1] = Pharmacokinetics and tissue distribution in nude mouse; assay type: in vivo
Experimental: The pharmacokinetics and toxicity of Compound I was studied in vivo in a nude mouse model.
Tissue-to-plasma ratios were taken of Compound I in animals at 1, 2, 4, 24 h after administration. At 60 min, the highest levels of Compound I were found in the lungs, brain, stomach, liver, mammary gland, and small intestine, all of which are highly perfused organs followed by spleen and heart. Up to 72 h, Compound I was detected in most organs, but not in the femur and kidney. The ratios in most organs continued to increase up to 4 h. […] There was no change in body weight monitored for a 7-day period after drug administrations.
As explained above, a pharmacokinetic study investigated the concentrations of Compound I at different time intervals after either oral administration or intravenous injection. […] In the gastrointestinal tract, a significant amount of Compound I accumulated in the stomach, implying that Compound I may be absorbed through stomach tissue and distributed throughout the body. […] Collectively, our current findings will provide a more complete understanding of the biological actions of Compound I in vivo.

SARS-CoV-2 [2] = assay: Antiviral activity against SARS-CoV-2 in Calu-3 cells; assay type: cell-based
SARS-CoV-2 [3] = assay: microbe, parasite or virus in culture; assay type: cell-based
[4] = treatment group compared to control group

Structure (SMILES): COc1cc(/C=C/C(=O)/C=C/C=C/c2cc(OC)c(O)c(OC)c2)cc(OC)c1 [Compound I]
- Toxicity (Vero cells): no toxicity was observed
- Toxicity ([1]; 10 mg/kg IV): No toxicity was observed
- tissue-to plasma ratio in the hippocampus and brain ([1]; 1, 2, and 24 h after dosing): increased significantly and continuously
- body weight ([1]; 7-day period after administration): no change
- tissue distribution ([1]; intravenous administration): widely distributed in several tissues
- absorbed or distributed to the vital organs ([1]; mouse, in vivo): approximately 98%
- excreted in either urine or feces ([1]; mouse, in vivo): less than 2%
- time Compound I was detected in most organs ([1]; not in the femur and kidney): Up to 72 h
- signs of discomfort, cardiovascular or respiratory disorders ([1]; throughout the study period): No signs of discomfort or any cardiovascular or respiratory disorders were observed
- increase in the area under the curve (AUC) [1, 4]: 28 fold
- increase in the maximum plasma concentration (Cmax) [1, 4]: 29 fold
- inhibition of intracellular SARS-CoV-2 RNA levels (SARS-CoV-2 [2]; Calu-3, 24 h p.i., RT-PCR): more than 95 % of control
- IC50 (SARS-CoV-2 [2]; Severe acute respiratory syndrome coronavirus 2, Calu-3, read-out: average half-maximum effective concentration (IC50)): 1500 nM
- IC50 (SARS-CoV-2 [2]; Severe acute respiratory syndrome coronavirus 2, Calu-3, read-out: calculated IC50 (viral genomic RNA in supernatants, qRT-PCR)): 5000 nM
- IC50 (SARS-CoV-2 [2]; Severe acute respiratory syndrome coronavirus 2, Calu-3 cultures, 0.1-5 μM, read-out: average IC50 (reduction in replication)): 10 nM
- IC50 (SARS-CoV-2 [2]; Severe acute respiratory syndrome coronavirus 2, calu-3 cell line, replication, read-out: IC 50): 10000 nM
- virus titer of treated cells (SARS-CoV-2 [2]; calu-3, 10 μM Compound I treated cells): ≤ 102 TCID50/ml
- reduction in viral RNA in supernatant and cell pellets (SARS-CoV-2 [3]; 1 μM, at 48 h, compared to control samples): 99%
- viral RNA in supernatant and cell pellets (SARS-CoV-2 [3]; 11 μM (figure legend)): reduction in viral RNA
- IC50 (SARS-CoV-2 [3]; Severe acute respiratory syndrome coronavirus 2, Vero cells, MOI 0.1, read-out: IC50 (inhibition of virus yield)): 1000 nM
- viral load measured by nucleoprotein expression (SARS-CoV-2 [3]; Vero cells, 48 h p.i., immunofluorescence): substantially reduced
- reduction in cell-associated viral RNA (SARS-CoV-2 [3]; at 24 h): 99%
- reduction in viral RNA present in the supernatant (SARS-CoV-2 [3]; at 24 h, compared to vehicle DMSO): 100%
- viral material (SARS-CoV-2 [3]; by 36 h): effective loss of essentially all viral material
